≈ marks a conversion by molar mass, not a printed value.
Test system: Mannheimia haemolytica MH 6374 (ATCC 33396, reference strain)
Test: MIC, broth-microdilution (CLSI VET01-A4)
Assay type: cell-based
Settings: Mannheimia haemolytica MH 6374; read-out: MIC MH 6374
How it was run: (§1)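 MIC values follow CLSI VET01-S3 interpretation, scored as the lowest concentration free of visible turbidity within a doubling dilution series in microdilution trays.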

SMILES | MIC
CC(C)([C@@H](NC(=O)c1ccc(C#Cc2ccc(CNCc3nccs3)cc2)cc1)C(=O)NO)S(C)(=O)=O [C. 620] | 0.2 µM (≈ 0.108 µg/mL)
CSC(C)(C)[C@H](NC(=O)c1ccc(C#Cc2ccc(CNCc3ccncc3)cc2)cc1)C(=O)NO [Compound 587] | 0.8 µM (≈ 0.402 µg/mL)
CSC(C)(C)[C@H](NC(=O)c1ccc(C#Cc2ccc(CNCc3ccco3)cc2)cc1)C(=O)NO [Compound 596] | 0.8 µM (≈ 0.393 µg/mL)
CC(C)(N)C(NC(=O)c1ccc(C#Cc2ccc(CNCc3ccccc3)cc2)cc1)C(=O)NO (racemic) [Compound 321] | 0.8 µM (≈ 0.376 µg/mL)
CC(C)C(NC(=O)c1ccc(C#Cc2ccc(CNC3CC3)cc2)cc1)C(=O)NO (centres unmarked) [Compound 144] | 0.195 µM (≈ 0.0791 µg/mL)

Test system: Pasteurella multocida PM 12080 (IV102277-0093, BRD field isolate)
Test: MIC, broth-microdilution (CLSI VET01-A4)
Assay type: cell-based
Settings: Pasteurella multocida PM 12080
How it was run: as §1

SMILES | MIC PM 12080
CC(C)([C@@H](NC(=O)c1ccc(C#Cc2ccc(CNCc3nccs3)cc2)cc1)C(=O)NO)S(C)(=O)=O [C. 620] | <=0.1 μM
CSC(C)(C)[C@H](NC(=O)c1ccc(C#Cc2ccc(CNCc3ccncc3)cc2)cc1)C(=O)NO [Compound 587] | <=0.1 μM
CSC(C)(C)[C@H](NC(=O)c1ccc(C#Cc2ccc(CNCc3ccco3)cc2)cc1)C(=O)NO [Compound 596] | <=0.1 μM
CC(C)C(NC(=O)c1ccc(C#Cc2ccc(CNC3CC3)cc2)cc1)C(=O)NO (centres unmarked) [Compound 144] | <=0.1 μM

Same assay, conditions: Pasteurella multocida PM 12080; read-out: MIC PM 12080

SMILES | MIC
CC(C)(N)C(NC(=O)c1ccc(C#Cc2ccc(CNCc3ccccc3)cc2)cc1)C(=O)NO (racemic) [Compound 321] | 0.2 µM (≈ 0.0941 µg/mL)

Test system: Pasteurella multocida PM 6391 (ATCC 43137, reference strain)
Test: MIC, broth-microdilution (CLSI VET01-A4)
Assay type: cell-based
Settings: Pasteurella multocida PM 6391
How it was run: as §1

SMILES | MIC PM 6391
CC(C)([C@@H](NC(=O)c1ccc(C#Cc2ccc(CNCc3nccs3)cc2)cc1)C(=O)NO)S(C)(=O)=O [C. 620] | <=0.1 μM
CSC(C)(C)[C@H](NC(=O)c1ccc(C#Cc2ccc(CNCc3ccncc3)cc2)cc1)C(=O)NO [Compound 587] | <=0.1 μM
CC(C)(N)C(NC(=O)c1ccc(C#Cc2ccc(CNCc3ccccc3)cc2)cc1)C(=O)NO (racemic) [Compound 321] | <=0.1 μM

Same assay, conditions: Pasteurella multocida PM 6391; read-out: MIC PM 6391

SMILES | MIC
CSC(C)(C)[C@H](NC(=O)c1ccc(C#Cc2ccc(CNCc3ccco3)cc2)cc1)C(=O)NO [Compound 596] | 0.2 µM (≈ 0.0983 µg/mL)
CC(C)C(NC(=O)c1ccc(C#Cc2ccc(CNC3CC3)cc2)cc1)C(=O)NO (centres unmarked) [Compound 144] | 0.098 µM (≈ 0.0397 µg/mL)

Test system: Pasteurella multocida PM 6267 (P 2225 (L386), reference strain, mouse infection strain)
Test: MIC, broth-microdilution (CLSI VET01-A4)
Assay type: cell-based
Settings: Pasteurella multocida PM 6267
How it was run: as §1

SMILES | MIC PM 6267
CC(C)([C@@H](NC(=O)c1ccc(C#Cc2ccc(CNCc3nccs3)cc2)cc1)C(=O)NO)S(C)(=O)=O [C. 620] | <=0.1 μM
CSC(C)(C)[C@H](NC(=O)c1ccc(C#Cc2ccc(CNCc3ccncc3)cc2)cc1)C(=O)NO [Compound 587] | <=0.1 μM
CSC(C)(C)[C@H](NC(=O)c1ccc(C#Cc2ccc(CNCc3ccco3)cc2)cc1)C(=O)NO [Compound 596] | <=0.1 μM
CC(C)C(NC(=O)c1ccc(C#Cc2ccc(CNC3CC3)cc2)cc1)C(=O)NO (centres unmarked) [Compound 144] | <=0.1 μM

Same assay, conditions: Pasteurella multocida PM 6267; read-out: MIC PM 6267

SMILES | MIC
CC(C)(N)C(NC(=O)c1ccc(C#Cc2ccc(CNCc3ccccc3)cc2)cc1)C(=O)NO (racemic) [Compound 321] | 0.4 µM (≈ 0.188 µg/mL)

Test system: Pasteurella multocida PM 10775 (080130003051, BRD field isolate)
Test: MIC, broth-microdilution (CLSI VET01-A4)
Assay type: cell-based
Settings: Pasteurella multocida PM 10775
How it was run: as §1

SMILES | MIC PM 10775
CC(C)([C@@H](NC(=O)c1ccc(C#Cc2ccc(CNCc3nccs3)cc2)cc1)C(=O)NO)S(C)(=O)=O [C. 620] | <=0.1 μM
CSC(C)(C)[C@H](NC(=O)c1ccc(C#Cc2ccc(CNCc3ccncc3)cc2)cc1)C(=O)NO [Compound 587] | <=0.1 μM
CSC(C)(C)[C@H](NC(=O)c1ccc(C#Cc2ccc(CNCc3ccco3)cc2)cc1)C(=O)NO [Compound 596] | <=0.1 μM
CC(C)(N)C(NC(=O)c1ccc(C#Cc2ccc(CNCc3ccccc3)cc2)cc1)C(=O)NO (racemic) [Compound 321] | <=0.1 μM
CC(C)C(NC(=O)c1ccc(C#Cc2ccc(CNC3CC3)cc2)cc1)C(=O)NO (centres unmarked) [Compound 144] | <=0.1 μM

Test system: Mannheimia haemolytica MH 12587 (1071, BRD field isolate, macrolide-resistance: erm+, E+)
Test: MIC, broth-microdilution (CLSI VET01-A4)
Assay type: cell-based
Settings: Mannheimia haemolytica MH 12587, macrolide-resistant
How it was run: as §1

SMILES | MIC MH 12587
CC(C)([C@@H](NC(=O)c1ccc(C#Cc2ccc(CNCc3nccs3)cc2)cc1)C(=O)NO)S(C)(=O)=O [C. 620] | 0.4 µM (≈ 0.216 µg/mL)
CSC(C)(C)[C@H](NC(=O)c1ccc(C#Cc2ccc(CNCc3ccncc3)cc2)cc1)C(=O)NO [Compound 587] | 0.8 µM (≈ 0.402 µg/mL)
CSC(C)(C)[C@H](NC(=O)c1ccc(C#Cc2ccc(CNCc3ccco3)cc2)cc1)C(=O)NO [Compound 596] | 0.8 µM (≈ 0.393 µg/mL)
CC(C)(N)C(NC(=O)c1ccc(C#Cc2ccc(CNCc3ccccc3)cc2)cc1)C(=O)NO (racemic) [Compound 321] | 1.6 µM (≈ 0.753 µg/mL)
CC(C)C(NC(=O)c1ccc(C#Cc2ccc(CNC3CC3)cc2)cc1)C(=O)NO (centres unmarked) [Compound 144] | 0.2 µM (≈ 0.0811 µg/mL)

Test system: Mannheimia haemolytica MH 6357 (M7/2, reference strain, cattle infection strain)
Test: MIC, broth-microdilution (CLSI VET01-A4)
Assay type: cell-based
Settings: Mannheimia haemolytica MH 6357; read-out: MIC MH 6357
How it was run: as §1

SMILES | MIC
CC(C)([C@@H](NC(=O)c1ccc(C#Cc2ccc(CNCc3nccs3)cc2)cc1)C(=O)NO)S(C)(=O)=O [C. 620] | 0.2 µM (≈ 0.108 µg/mL)
CSC(C)(C)[C@H](NC(=O)c1ccc(C#Cc2ccc(CNCc3ccncc3)cc2)cc1)C(=O)NO [Compound 587] | 0.4 µM (≈ 0.201 µg/mL)
CSC(C)(C)[C@H](NC(=O)c1ccc(C#Cc2ccc(CNCc3ccco3)cc2)cc1)C(=O)NO [Compound 596] | 0.4 µM (≈ 0.197 µg/mL)
CC(C)(N)C(NC(=O)c1ccc(C#Cc2ccc(CNCc3ccccc3)cc2)cc1)C(=O)NO (racemic) [Compound 321] | 1.6 µM (≈ 0.753 µg/mL)
CC(C)C(NC(=O)c1ccc(C#Cc2ccc(CNC3CC3)cc2)cc1)C(=O)NO (centres unmarked) [Compound 144] | 1.563 µM (≈ 0.634 µg/mL)

Test system: Mannheimia haemolytica MH 10720 (154, BRD field isolate)
Test: MIC, broth-microdilution (CLSI VET01-A4)
Assay type: cell-based
Settings: Mannheimia haemolytica MH 10720
How it was run: as §1

SMILES | MIC MH 10720
CC(C)([C@@H](NC(=O)c1ccc(C#Cc2ccc(CNCc3nccs3)cc2)cc1)C(=O)NO)S(C)(=O)=O [C. 620] | <=0.1 μM
CSC(C)(C)[C@H](NC(=O)c1ccc(C#Cc2ccc(CNCc3ccncc3)cc2)cc1)C(=O)NO [Compound 587] | <=0.1 μM
CSC(C)(C)[C@H](NC(=O)c1ccc(C#Cc2ccc(CNCc3ccco3)cc2)cc1)C(=O)NO [Compound 596] | <=0.1 μM
CC(C)C(NC(=O)c1ccc(C#Cc2ccc(CNC3CC3)cc2)cc1)C(=O)NO (centres unmarked) [Compound 144] | <=0.1 μM

Same assay, conditions: Mannheimia haemolytica MH 10720; read-out: MIC MH 10720

SMILES | MIC
CC(C)(N)C(NC(=O)c1ccc(C#Cc2ccc(CNCc3ccccc3)cc2)cc1)C(=O)NO (racemic) [Compound 321] | 0.4 µM (≈ 0.188 µg/mL)

Test system: Mannheimia haemolytica MH 13065 (XB0446-6003.9, BRD field isolate)
Test: MIC, broth-microdilution (CLSI VET01-A4)
Assay type: cell-based
Settings: not given
How it was run: (§2)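 Broth microdilution per CLSI VET01-A4 using doubling dilution series of compound. MIC taken as the lowest concentration with no turbidity visible to the unaided eye, interpreted per CLSI VET01-S3.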

SMILES | MIC | MIC MH 13065
CC(C)([C@@H](NC(=O)c1ccc(C#Cc2ccc(CNCc3nccs3)cc2)cc1)C(=O)NO)S(C)(=O)=O [C. 620] | 0.2 µM (≈ 0.108 µg/mL) | –
CSC(C)(C)[C@H](NC(=O)c1ccc(C#Cc2ccc(CNCc3ccncc3)cc2)cc1)C(=O)NO [Compound 587] | 0.4 µM (≈ 0.201 µg/mL) | –
CSC(C)(C)[C@H](NC(=O)c1ccc(C#Cc2ccc(CNCc3ccco3)cc2)cc1)C(=O)NO [Compound 596] | 0.4 µM (≈ 0.197 µg/mL) | –
CC(C)(N)C(NC(=O)c1ccc(C#Cc2ccc(CNCc3ccccc3)cc2)cc1)C(=O)NO (racemic) [Compound 321] | 0.8 µM (≈ 0.376 µg/mL) | –
CC(C)C(NC(=O)c1ccc(C#Cc2ccc(CNC3CC3)cc2)cc1)C(=O)NO (centres unmarked) [Compound 144] | – | <=0.1 μM

Test system: Mannheimia haemolytica MH 13093 (XB0472-6014.1, BRD field isolate)
Test: MIC, broth-microdilution (CLSI VET01-A4)
Assay type: cell-based
Settings: not given
How it was run: as §2

SMILES | MIC
CC(C)([C@@H](NC(=O)c1ccc(C#Cc2ccc(CNCc3nccs3)cc2)cc1)C(=O)NO)S(C)(=O)=O [C. 620] | 0.2 µM (≈ 0.108 µg/mL)
CSC(C)(C)[C@H](NC(=O)c1ccc(C#Cc2ccc(CNCc3ccncc3)cc2)cc1)C(=O)NO [Compound 587] | 0.4 µM (≈ 0.201 µg/mL)
CSC(C)(C)[C@H](NC(=O)c1ccc(C#Cc2ccc(CNCc3ccco3)cc2)cc1)C(=O)NO [Compound 596] | 0.4 µM (≈ 0.197 µg/mL)
CC(C)(N)C(NC(=O)c1ccc(C#Cc2ccc(CNCc3ccccc3)cc2)cc1)C(=O)NO (racemic) [Compound 321] | 1.6 µM (≈ 0.753 µg/mL)
CC(C)C(NC(=O)c1ccc(C#Cc2ccc(CNC3CC3)cc2)cc1)C(=O)NO (centres unmarked) [Compound 144] | 0.2 µM (≈ 0.0811 µg/mL)

Source: patent US20230000813A1, “COMPOUND FOR THE TREATMENT OF BOVINE OR SWINE RESPIRATORY DISEASE” (Intervet Inc., priority 2016, published 2023)
